Data from patent publication US11219625B2, “Inhibitors of N-linked glycosylation and methods using same” (YALE UNIVERSITY, priority 2015, dated 2022).

Columns and labels:
Assay type in all cases: cell-based
OST = test: Free and peptide glycans in streptolysin-O permeabilized CHO cells; conditions: NGI-1 5 μM
Method: Fluorophore assisted carbohydrate electrophoresis (FACE) was performed as previously described (Gao, et al., Glycobiology 2002, 12, 353-360; Gao, et al., J Biol Chem 2005, 280, 17901-17909). Control (Ac-Gln-Tyr-Thr-CONH2) and acceptor (Ac-Asn-Tyr-Thr-CONH2) peptides were used for permeabilized cell experiments. Metabolic labeling of Hela cells, transfection of prosaposin (pSAP) and steroid hormone binding globulin (SHBG) vectors, and knockdown of SIT3A and STT3B to monitor N-linked glycosylation knockdown were performed as described (Shrimal, et al., J Cell Biol 2013, 201, 81-95). Western blot analysis was performed as previously described (Bennett, et al., Transl Oncol 2013, 6, 382-391). […]
The OST is an ER resident multi-subunit complex that cleaves LLOs and transfers the oligosaccharide to a protein encoded N-linked glycosylation consensus sequence (NXT/S). […] Both enzymatic products of the OST, free glycans and protein glycans, were therefore determined with and without NGI-1 treatment using optimized conditions in streptolysin-O permeabilized CHO cells (FIG. 2C). Addition of a control peptide without the N-linked glycosylation consensus sequence (QYT) led to readily detectable levels of free glycans (left panel), while addition of an acceptor peptide containing the consensus sequence (NYT) followed by PNGase treatment led to detection of cleaved peptide glycans (right panel). […]

PC9 cells = test: Cell cycle distribution by flow cytometry, PC9; conditions: PC9, NGI-1 24 h; control 65%; p<0.01
Method: FIGS. 5A-5G illustrate NGI-1 induces G1 arrest and senescence in EGFR addicted tumor cells. FIG. 5A illustrates cell cycle distribution of PC9 cells after 24 h NGI-1 treatment for 24 h determined by flow cytometry. […] FIG. 5B illustrates cell cycle distribution of A549 cells after 24 h NGI-1 treatment for 24 h determined by flow cytometry. FIG. 5C illustrates western blot time course of cyclin D1 expression in PC9 and A549 cells after NGI-1 treatment. FIG. 5D illustrates quantitative real-time PCR analysis of PC9 and A549 cells. A time course of cyclin D1 expression levels relative to GAPDH is represented. […] FIG. 5F illustrates senescence of PC9 cells explored by: cell autofluorescence, measured by flow cytometry using a detector for PE/YFP; lipofuscin accumulation, detected by confocal laser scanning microscopy using an excitation laser of 405 nm with acquired signals from spectrums of yellow 575-620 nm; and morphology changes, enlarged vs. flattened. […] Significance was calculated using a T test (*p<0.05. **p<0.01). FIG. 5G illustrates senescence of A549 cells explored by: cell autofluorescence, measured by flow cytometry using a detector for PE/YFP; lipofuscin accumulation, detected by confocal laser scanning microscopy using an excitation laser of 405 nm with acquired signals from spectrums of yellow 575-620 nm; and morphology changes, enlarged vs. flattened. […]

HCC827 cells = test: Cell cycle distribution by flow cytometry, HCC827; conditions: HCC827, NGI-1 24 h, p<0.01
Method: FIGS. 7A-7D illustrate EGFR kinase domain mutant cell lines growth inhibition and cell cycle arrest response to NGI-1. FIG. 7A illustrates MTT assays to determine the effects of NGI-1 on growth of H3255 cells. FIG. 7B illustrates MIT assays to determine the effects of NGI-1 on growth of HCC827 cells. EGFR kinase domain mutant cell lines H3255 and HCC827 cells were untreated or treated with 10 μM NGI-1 for 5 d. […] FIG. 7C illustrates cell cycle distribution of H3255 after 24 h NGI-1 treatment for 24 h determined by flow cytometry. FIG. 7D illustrates cell cycle distribution of HCC827 after 24 h NGI-1 treatment for 24 h determined by flow cytometry.
For the assessment of cell cycle distribution, 1×10^6 cells were collected, washed once with ice-cold PBS and fixed in ice-cold 70% ethanol overnight at −20° C. Thereafter, cells were washed twice with PBS and incubated for 30 min at room temperature in 200 μL of Guava Cell Cycle Reagent (Guava Technologies). Cytofluorometric acquisitions were performed on a LSRII cytometer (BD Biosciences). First-line analysis was performed with Flow Jo software, upon gating on the events characterized by normal forward and side scatter parameters and discrimination of doublets in a FSC-A vs. FSC-H bivariate plot. Approximately 30,000 cells were analyzed per experiment, and the mean value was obtained from 3 independent assays.

**Q.** `Cc1cnc(NC(=O)c2cc(S(=O)(=O)N(C)C)ccc2N2CCCC2)s1` [NGI-1, 5-(N,N-Dimethylsulfamoyl)-N-(5-methylthiazol-2-yl)-2-(pyrrolidin-1-yl)benzamide] was tested. Which “production of free glycans and cleaved peptide glycans” value (OST) did it give?
**A.** substantially reduced the production of both free and cleaved glycans

**Q.** What about the “cells in G1” value (PC9 cells) of the same compound?
**A.** 90%

**Q.** What about the cell cycle distribution (HCC827 cells) of the same compound?
**A.** undergo G1 arrest
